Columns and labels:
CLL-PBMC [1] = details: 72 h
Description: (§1) Apoptosis: PBMC (1 million cells/ml) from B-CLL patients or normal subjects were cultured in RPMI media supplemented with 10% FBS, L-glutamine and penicillin/streptomycin at 37° C. in 5% CO2 and treated with either vehicle or the PDE7 inhibitor BRL-50481 for 72 h. Apoptosis was assessed by flow cytometry as the percentage of cells stained with Annexin V and Propidium Iodide (PI) and analyzed by FACScan using CELLQuest software (Becton-Dickinson Immunocytometry System) (18).
(§2) PBMC from CLL patients (n=10) and normal subjects (n=6) were grown in the absence or presence of BRL-50481 (10 μM, 30 μM and 100 μM) for 72 h.

normal-PBMC = details: 10, 30 and 100 μM, 72 h, normal subjects n=6
Description: as §1, §2

monocytes or macrophages = details: 30 μM, literature (ref 25); cited from earlier work
CD8+ T-lymphocytes = details: 30 μM, literature (ref 25); cited from earlier work
CLL-PBMC [2] = details: literature (refs 8, 9, 13); cited from earlier work

SMILES	dose dependence of apoptosis induction in CLL-PBMC (CLL-PBMC [1]; 10 μM, 30 μM and 100 μM)	increase in apoptosis in CLL-PBMC (CLL-PBMC [1]; ≧30 uM, CLL patients n=10, relative to vehicle control)	induction of apoptosis in PBMC from normal subjects (normal-PBMC)	effect on TNFα release in monocytes or macrophages (monocytes or macrophages)	inhibition of IL-5-promoted proliferation of CD8+ T-lymphocytes (CD8+ T-lymphocytes)	induction of apoptosis in CLL-PBMC (CLL-PBMC [2])
Cc1ccc([N+](=O)[O-])cc1S(=O)(=O)N(C)C [BRL-50481, 3-(N,N-dimethylsulfonamido)-4-methyl-nitrobenzene]	consistently and dose-dependently induced apoptosis	20-40%	not in PBMC from normal subjects	little effect	failed to inhibit	
CN(C(=O)CCCOc1ccc2[nH]c(=O)ccc2c1)C1CCCCC1 [cilostamide]						does not induce apoptosis
Cn1c(=O)c2[nH]cnc2n(C)c1=O [theophylline]						induces apoptosis

Source: patent publication US8114590B2, “Diagnosis and treatment of chronic lymphocytic leukemia (CLL)” (The Regents of the University of California, priority 2005, dated 2012)
